Measurements published in ChEMBL document CHEMBL4765450, “The components and activities analysis of a novel anticoagulant candidate dHG-5” (Eur J Med Chem, 2020).
Calls of active or inactive are those of the source. The rule behind the calls is not given here.

What was measured:
Coagulation factor IX [1] = target: T1, Coagulation factor IX (Homo sapiens, UniProt P00740); experiment: Inhibition of factor 9a (unknown origin) binding to immobilized biotinylated oHG-11 assessed as activity potency of oligosaccharides multiplied by the percentage of oligosaccharides in dHG-5 by biolayer interferometry relative to dHG-5
T1 sequence (P00740 47-191 limits assumed): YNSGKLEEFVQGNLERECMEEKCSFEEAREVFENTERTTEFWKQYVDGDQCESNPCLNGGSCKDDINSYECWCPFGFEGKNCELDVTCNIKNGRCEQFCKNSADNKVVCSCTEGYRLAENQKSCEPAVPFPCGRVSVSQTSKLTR
T1 sequence (P00740 227-461 limits assumed): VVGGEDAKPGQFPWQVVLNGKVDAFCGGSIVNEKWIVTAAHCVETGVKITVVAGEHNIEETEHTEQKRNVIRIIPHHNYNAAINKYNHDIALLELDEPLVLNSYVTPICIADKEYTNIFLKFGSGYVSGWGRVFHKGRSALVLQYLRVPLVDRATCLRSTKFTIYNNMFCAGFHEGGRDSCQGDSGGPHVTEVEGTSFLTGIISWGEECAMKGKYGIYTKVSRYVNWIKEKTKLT

Coagulation factor IX [2] = target: T1, Coagulation factor IX; experiment: Inhibition of factor 9a (unknown origin) binding to immobilized biotinylated oHG-11 by biolayer interferometry
[3] = target: Prothrombin (Homo sapiens) (UniProt P00734); experiment: Inhibition of factor 2a (unknown origin) at IC50 preincubated for 1 min followed by chromogenic substrate addition and measured for 2 mins; conditions: time 3.0 min
Rattus norvegicus [4] = experiment: Antithrombotic activity in thromboplastin and stasis-induced Sprague-Dawley rat deep venous thrombosis model assessed as reduction in venous thrombosis by measuring activity potency of oligosaccharides multiplied by the percentage of oligosaccharides in dHG-5 at 2.36 mg/kg, sc administered 1 hr prior to thromboplastin addition for 20 secs followed by establishment of stasis for 20 mins relative to dHG-5; format: functional; conditions: time 80.33 min, 1.339 h
[5] = target: Prothrombin (Homo sapiens) (UniProt P00734); experiment: Inhibition of factor 2a (unknown origin) at IC50 preincubated for 1 min followed by chromogenic substrate addition and measured for 2 mins in presence of AT-III; conditions: time 3.0 min
Coagulation factor IX [6] = target: T1, Coagulation factor IX; experiment: Inhibition of factor 9a (unknown origin) binding to immobilized biotinylated oHG-11 by biolayer interferometry relative to dHG-5
Plasma [7] = experiment: (§1) Anticoagulation activity in human plasma assessed as drug level causing 20 times doubling of APTT preincubated for 2 mins followed by APTT reagent and measured after 3 mins by coagulometric method relative to dHG-5; format: functional; conditions: time 5 min
[8] = target: Coagulation factor XI (Homo sapiens) (UniProt P03951); experiment: Inhibition of factor 11a (unknown origin) at IC90 using S-2366 as substrate preincubated for 1 min followed by chromogenic substrate addition and measured for 2 mins in presence of AT-III; conditions: time 3.0 min
Chain of Coagulation factor XI (Homo sapiens) (P03951 19-387 limits assumed): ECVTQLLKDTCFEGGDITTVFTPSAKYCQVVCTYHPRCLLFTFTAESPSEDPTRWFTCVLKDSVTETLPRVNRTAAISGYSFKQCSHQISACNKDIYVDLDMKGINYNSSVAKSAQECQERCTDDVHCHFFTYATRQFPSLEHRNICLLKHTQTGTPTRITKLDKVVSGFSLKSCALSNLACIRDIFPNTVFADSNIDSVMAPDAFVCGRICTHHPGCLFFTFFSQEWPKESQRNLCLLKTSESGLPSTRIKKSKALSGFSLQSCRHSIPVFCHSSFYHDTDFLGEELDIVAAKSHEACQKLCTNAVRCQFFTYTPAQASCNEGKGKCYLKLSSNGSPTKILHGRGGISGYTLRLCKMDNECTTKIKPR
Chain of Coagulation factor XI (Homo sapiens) (P03951 388-625 limits assumed): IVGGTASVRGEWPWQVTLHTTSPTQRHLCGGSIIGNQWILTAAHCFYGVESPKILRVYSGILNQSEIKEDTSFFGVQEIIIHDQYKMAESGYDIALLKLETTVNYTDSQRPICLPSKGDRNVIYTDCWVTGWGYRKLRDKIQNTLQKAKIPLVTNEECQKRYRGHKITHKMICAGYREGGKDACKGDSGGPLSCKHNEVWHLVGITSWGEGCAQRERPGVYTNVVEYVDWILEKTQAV

[9] = target: T2, Coagulation factor XII (Homo sapiens) (UniProt P00748); experiment: Inhibition of factor 12a (unknown origin) at IC50 using kallikrein chromogenic substrate preincubated for 1 min followed by chromogenic substrate addition and measured for 2 mins in presence of AT-III; conditions: time 3.0 min
T2 sequence (whole entry): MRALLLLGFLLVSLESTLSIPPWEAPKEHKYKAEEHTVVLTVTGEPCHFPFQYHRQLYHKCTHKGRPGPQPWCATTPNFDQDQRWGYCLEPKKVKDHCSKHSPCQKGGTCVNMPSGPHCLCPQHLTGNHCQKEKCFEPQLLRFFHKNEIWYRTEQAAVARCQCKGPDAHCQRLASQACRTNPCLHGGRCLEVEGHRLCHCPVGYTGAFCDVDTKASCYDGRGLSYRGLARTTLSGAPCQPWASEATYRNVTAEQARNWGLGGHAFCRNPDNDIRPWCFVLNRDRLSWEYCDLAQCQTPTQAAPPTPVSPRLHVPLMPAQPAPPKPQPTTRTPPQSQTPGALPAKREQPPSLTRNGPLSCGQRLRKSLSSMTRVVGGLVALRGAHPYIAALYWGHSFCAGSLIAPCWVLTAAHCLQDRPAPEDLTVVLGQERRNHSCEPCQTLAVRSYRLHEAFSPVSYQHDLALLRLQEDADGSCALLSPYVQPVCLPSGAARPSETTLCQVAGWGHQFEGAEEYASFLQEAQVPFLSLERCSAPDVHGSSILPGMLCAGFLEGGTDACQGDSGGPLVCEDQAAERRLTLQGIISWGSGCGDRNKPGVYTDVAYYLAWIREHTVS

Plasma [10] = experiment: Anticoagulation activity in AT-III-deficient human plasma preincubated for 2 mins followed by APTT reagent and measured after 3 mins by coagulometric method; format: functional, cell-free; conditions: time 5.0 min
[11] = target: T3, Coagulation factor VII (Homo sapiens) (UniProt P08709); experiment: Inhibition of factor 7a (unknown origin) at IC50 using pefachrome factor VIIa as substrate preincubated for 1 min followed by chromogenic substrate addition and measured for 2 mins; conditions: time 3.0 min
T3 sequence (whole entry): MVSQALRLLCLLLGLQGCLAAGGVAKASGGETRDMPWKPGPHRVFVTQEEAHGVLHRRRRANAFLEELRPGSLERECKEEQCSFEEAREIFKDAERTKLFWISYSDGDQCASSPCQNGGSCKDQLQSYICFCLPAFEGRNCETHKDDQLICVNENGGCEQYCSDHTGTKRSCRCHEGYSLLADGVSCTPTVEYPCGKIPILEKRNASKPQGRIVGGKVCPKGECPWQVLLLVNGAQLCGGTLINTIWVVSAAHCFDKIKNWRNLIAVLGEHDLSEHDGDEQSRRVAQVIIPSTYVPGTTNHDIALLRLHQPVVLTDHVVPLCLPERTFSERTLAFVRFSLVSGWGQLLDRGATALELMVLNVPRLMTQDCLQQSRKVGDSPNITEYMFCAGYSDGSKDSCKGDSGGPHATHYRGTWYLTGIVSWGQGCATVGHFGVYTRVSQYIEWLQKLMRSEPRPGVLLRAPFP

[12] = target: Coagulation factor IX/VIII (Homo sapiens, UniProt P00451+P00740); experiment: Inhibition of human citrated plasma iXase (factor 8a-factor 9a complex) preincubated for 2 mins followed by factor 10 addition and measured after 1 min by FXa chromogenic substrate SXa-11 based assay; format: protein-complex assay
Chain of Coagulation factor IX/VIII (P00451 20-759 limits assumed): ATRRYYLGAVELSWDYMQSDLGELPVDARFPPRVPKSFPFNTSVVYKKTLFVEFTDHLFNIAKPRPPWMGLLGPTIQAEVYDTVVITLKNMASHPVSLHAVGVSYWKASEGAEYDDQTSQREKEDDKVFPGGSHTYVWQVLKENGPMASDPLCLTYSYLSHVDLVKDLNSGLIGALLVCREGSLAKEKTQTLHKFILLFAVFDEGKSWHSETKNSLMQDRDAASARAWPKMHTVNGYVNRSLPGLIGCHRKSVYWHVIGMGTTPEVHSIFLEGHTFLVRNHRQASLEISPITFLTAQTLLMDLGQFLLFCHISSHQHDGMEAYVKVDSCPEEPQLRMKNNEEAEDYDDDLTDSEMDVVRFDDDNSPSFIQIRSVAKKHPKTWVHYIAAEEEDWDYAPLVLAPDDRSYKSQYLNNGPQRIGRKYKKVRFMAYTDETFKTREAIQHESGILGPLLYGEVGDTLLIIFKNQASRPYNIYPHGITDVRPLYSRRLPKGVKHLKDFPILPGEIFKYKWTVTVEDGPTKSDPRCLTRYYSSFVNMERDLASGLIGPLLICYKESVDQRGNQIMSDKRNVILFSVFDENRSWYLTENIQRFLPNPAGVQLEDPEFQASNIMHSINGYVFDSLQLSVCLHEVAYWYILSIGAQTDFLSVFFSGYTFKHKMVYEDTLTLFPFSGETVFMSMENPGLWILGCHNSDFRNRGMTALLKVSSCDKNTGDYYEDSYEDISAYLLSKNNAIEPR
Chain of Coagulation factor IX/VIII (P00451 1668-2351 limits assumed): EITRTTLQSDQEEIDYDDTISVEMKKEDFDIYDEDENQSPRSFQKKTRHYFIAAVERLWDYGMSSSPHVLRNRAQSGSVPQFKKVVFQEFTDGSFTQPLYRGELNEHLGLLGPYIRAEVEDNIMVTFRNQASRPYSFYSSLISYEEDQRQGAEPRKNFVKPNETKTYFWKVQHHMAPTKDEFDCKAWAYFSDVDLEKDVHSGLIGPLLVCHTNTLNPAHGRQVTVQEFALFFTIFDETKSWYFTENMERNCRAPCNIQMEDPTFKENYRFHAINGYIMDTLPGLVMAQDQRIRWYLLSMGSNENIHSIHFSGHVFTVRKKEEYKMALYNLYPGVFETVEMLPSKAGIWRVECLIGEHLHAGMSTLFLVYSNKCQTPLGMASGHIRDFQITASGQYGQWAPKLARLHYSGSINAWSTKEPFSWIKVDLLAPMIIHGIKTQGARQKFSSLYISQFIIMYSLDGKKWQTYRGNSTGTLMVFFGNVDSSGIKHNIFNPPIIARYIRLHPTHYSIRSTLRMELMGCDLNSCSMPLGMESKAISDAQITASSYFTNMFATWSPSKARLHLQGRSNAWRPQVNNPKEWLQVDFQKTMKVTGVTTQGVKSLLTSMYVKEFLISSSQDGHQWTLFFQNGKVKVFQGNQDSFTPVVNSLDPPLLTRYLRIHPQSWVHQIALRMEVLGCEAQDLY
Chain of Coagulation factor IX/VIII (P00740 47-191 limits assumed): as the sequence (P00740 47-191 limits assumed) above
Chain of Coagulation factor IX/VIII (P00740 227-461 limits assumed): as the sequence (P00740 227-461 limits assumed) above

[13] = target: Coagulation factor X (Homo sapiens) (UniProt P00742); experiment: Inhibition of factor 10a (unknown origin) at IC50 preincubated for 1 min followed by chromogenic substrate addition and measured for 2 mins; conditions: time 3.0 min
Chain of Coagulation factor X (Homo sapiens) (P00742 41-179 limits assumed): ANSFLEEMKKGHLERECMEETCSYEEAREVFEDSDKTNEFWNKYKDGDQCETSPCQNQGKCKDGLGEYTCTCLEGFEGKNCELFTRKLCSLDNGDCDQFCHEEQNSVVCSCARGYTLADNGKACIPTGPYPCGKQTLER
Chain of Coagulation factor X (Homo sapiens) (P00742 235-488 limits assumed): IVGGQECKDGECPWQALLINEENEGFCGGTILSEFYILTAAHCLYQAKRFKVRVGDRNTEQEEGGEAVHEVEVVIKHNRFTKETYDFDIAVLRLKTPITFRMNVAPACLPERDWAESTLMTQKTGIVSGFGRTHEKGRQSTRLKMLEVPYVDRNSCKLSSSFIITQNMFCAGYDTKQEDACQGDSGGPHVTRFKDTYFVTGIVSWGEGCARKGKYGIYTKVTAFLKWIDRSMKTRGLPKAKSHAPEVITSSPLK

[14] = target: Coagulation factor XI (Homo sapiens) (UniProt P03951); experiment: Inhibition of factor 11a (unknown origin) at IC50 using S-2366 as substrate preincubated for 1 min followed by chromogenic substrate addition and measured for 2 mins in presence of AT-III; conditions: time 3.0 min
Rattus norvegicus [15] = experiment: Antithrombotic activity in thromboplastin and stasis-induced Sprague-Dawley rat deep venous thrombosis model assessed as reduction in venous thrombosis at 2.36 mg/kg, sc administered 1 hr prior to thromboplastin addition for 20 secs followed by establishment of stasis for 20 mins relative to dHG-5; format: functional; conditions: time 80.33 min, 1.339 h
[16] = target: T3, Coagulation factor VII (Homo sapiens); experiment: Inhibition of factor 7a (unknown origin) at IC50 using pefachrome factor VIIa as substrate preincubated for 1 min followed by chromogenic substrate addition and measured for 2 mins in presence of AT-III; conditions: time 3.0 min
[17] = target: T4, Coagulation factor IX/VIII (Homo sapiens) (UniProt P00740+P00451); experiment: (§2) Inhibition of human citrated plasma iXase (factor 8a-factor 9a complex) preincubated for 2 mins followed by factor 10 addition and measured after 1 min by FXa chromogenic substrate SXa-11 based assay relative to dHG-5; format: protein-complex assay; conditions: time 3.0 min
[18] = target: T4, Coagulation factor IX/VIII (Homo sapiens); experiment: as §2, with “complex) assessed as activity potency of oligosaccharides multiplied by the percentage of oligosaccharides in dHG-5” for “complex)”; format: protein-complex assay; conditions: time 3.0 min
Rattus norvegicus [19] = experiment: Antithrombotic activity in thromboplastin and stasis-induced Sprague-Dawley rat deep venous thrombosis model assessed as reduction in venous thrombosis at 2.36 mg/kg, sc administered 1 hr prior to thromboplastin addition for 20 secs followed by establishment of stasis for 20 mins; format: functional; set-up: scale not given: the % may be the effect or the level left; conditions: time 80.33 min, 1.339 h
[20] = target: Coagulation factor X (Homo sapiens) (UniProt P00742); experiment: Inhibition of factor 10a (unknown origin) at IC90 preincubated for 1 min followed by chromogenic substrate addition and measured for 2 mins in presence of AT-III relative to control; conditions: time 3.0 min
[21] = target: Coagulation factor XI (Homo sapiens) (UniProt P03951); experiment: Inhibition of factor 11a (unknown origin) at IC50 using S-2366 as substrate preincubated for 1 min followed by chromogenic substrate addition and measured for 2 mins; conditions: time 3.0 min
[22] = target: T2, Coagulation factor XII (Homo sapiens); experiment: Inhibition of factor 12a (unknown origin) at IC50 using kallikrein chromogenic substrate preincubated for 1 min followed by chromogenic substrate addition and measured for 2 mins; conditions: time 3.0 min
[23] = target: Coagulation factor X (Homo sapiens) (UniProt P00742); experiment: Inhibition of factor 10a (unknown origin) at IC50 preincubated for 1 min followed by chromogenic substrate addition and measured for 2 mins in presence of AT-III; conditions: time 3.0 min
Plasma [24] = experiment: as §1, with “of APTT by measuring activity potency of oligosaccharides multiplied by the percentage of oligosaccharides in dHG-5 preincubated for” for “of APTT preincubated for”; format: functional; conditions: time 5 min
Plasma [25] = experiment: Anticoagulation activity in HCII-deficient human plasma preincubated for 2 mins followed by APTT reagent and measured after 3 mins by coagulometric method; format: functional, cell-free; conditions: time 5.0 min
[26] = target: Prothrombin (Homo sapiens) (UniProt P00734); experiment: Inhibition of factor 2a (unknown origin) at IC90 preincubated for 1 min followed by chromogenic substrate addition and measured for 2 mins in presence of AT-III; conditions: time 3.0 min

- Ratio (Coagulation factor IX [1]): 14.1 U
- IC50 (Coagulation factor IX [2]): 416 nM
- inhibition [3]: inactive
- inhibition [5]: inactive
- Ratio (Coagulation factor IX [6]): 103 U
- inhibition [8]: Active
- inhibition [9]: inactive
- inhibition (active/not active) [11]: inactive
- IC50 [12]: 17.2 nM
- inhibition [13]: inactive
- inhibition [14]: inactive
- inhibition [16]: inactive
- Ratio [17]: 81.6 U
- Ratio [18]: 11.1 U
- inhibition [20]: inactive
- inhibition [21]: inactive
- inhibition [22]: inactive
- inhibition [23]: inactive
- inhibition [26]: Active
Compound: CC(=O)N[C@H]1[C@H](O[C@@H]([C@H](O[C@@H]2O[C@@H](C)[C@@H](OS(=O)(=O)[O-])[C@@H](OS(=O)(=O)O)[C@@H]2O)[C@@H](O)CO)[C@H](O)C(=O)[O-])O[C@H](COS(=O)(=O)[O-])[C@H](OS(=O)(=O)[O-])[C@@H]1O[C@@H]1O[C@H](C(=O)[O-])[C@@H](O[C@@H]2O[C@H](COS(=O)(=O)[O-])[C@H](OS(=O)(=O)[O-])[C@H](O[C@@H]3O[C@H](C(=O)[O-])[C@@H](O[C@@H]4O[C@H](COS(=O)(=O)[O-])[C@H](OS(=O)(=O)[O-])[C@H](O[C@@H]5O[C@H](C(=O)[O-])[C@@H](O[C@@H]6O[C@H](COS(=O)(=O)[O-])[C@H](OS(=O)(=O)[O-])[C@H](O[C@@H]7O[C@H](C(=O)[O-])[C@@H](O[C@@H]8O[C@H](COS(=O)(=O)[O-])[C@H](OS(=O)(=O)[O-])[C@H](O[C@@H]9OC(C(=O)[O-])=C[C@H](O[C@@H]%10O[C@@H](C)[C@@H](OS(=O)(=O)[O-])[C@@H](OS(=O)(=O)O)[C@@H]%10O)[C@H]9O)[C@H]8NC(C)=O)[C@H](O[C@@H]8O[C@@H](C)[C@@H](OS(=O)(=O)[O-])[C@@H](OS(=O)(=O)O)[C@@H]8O)[C@H]7O)[C@H]6NC(C)=O)[C@H](O[C@@H]6O[C@@H](C)[C@@H](OS(=O)(=O)[O-])[C@@H](OS(=O)(=O)O)[C@@H]6O)[C@H]5O)[C@H]4NC(C)=O)[C@H](O[C@@H]4O[C@@H](C)[C@@H](OS(=O)(=O)[O-])[C@@H](OS(=O)(=O)O)[C@@H]4O)[C@H]3O)[C@H]2NC(C)=O)[C@H](O[C@@H]2O[C@@H](C)[C@@H](OS(=O)(=O)[O-])[C@@H](OS(=O)(=O)O)[C@@H]2O)[C@H]1O.[Na+].[Na+].[Na+].[Na+].[Na+].[Na+].[Na+].[Na+].[Na+].[Na+].[Na+].[Na+].[Na+].[Na+].[Na+].[Na+].[Na+].[Na+].[Na+].[Na+].[Na+].[Na+]
- Ratio (Rattus norvegicus [4]): 16.73 U
- Ratio (Plasma [7]): 104.07 U
- Activity (Plasma [10]): Active
- Ratio (Rattus norvegicus [15]): 123.01 U
- Activity (Rattus norvegicus [19]): 58.4%
- Ratio (Plasma [24]): 14.17 U
- Activity (Plasma [25]): Active
